Data published in US7452887B2, “Quinoline- and isoquinoline-based compounds exhibiting ATP-utilizing enzyme inhibitory activity, and compositions, and uses thereof” (Amphora Discovery Corporation, priority 2004, dated 2008).

Target: T1, FLT-3 (Homo sapiens, UniProt P36888)
T1 sequence (P36888 27-993): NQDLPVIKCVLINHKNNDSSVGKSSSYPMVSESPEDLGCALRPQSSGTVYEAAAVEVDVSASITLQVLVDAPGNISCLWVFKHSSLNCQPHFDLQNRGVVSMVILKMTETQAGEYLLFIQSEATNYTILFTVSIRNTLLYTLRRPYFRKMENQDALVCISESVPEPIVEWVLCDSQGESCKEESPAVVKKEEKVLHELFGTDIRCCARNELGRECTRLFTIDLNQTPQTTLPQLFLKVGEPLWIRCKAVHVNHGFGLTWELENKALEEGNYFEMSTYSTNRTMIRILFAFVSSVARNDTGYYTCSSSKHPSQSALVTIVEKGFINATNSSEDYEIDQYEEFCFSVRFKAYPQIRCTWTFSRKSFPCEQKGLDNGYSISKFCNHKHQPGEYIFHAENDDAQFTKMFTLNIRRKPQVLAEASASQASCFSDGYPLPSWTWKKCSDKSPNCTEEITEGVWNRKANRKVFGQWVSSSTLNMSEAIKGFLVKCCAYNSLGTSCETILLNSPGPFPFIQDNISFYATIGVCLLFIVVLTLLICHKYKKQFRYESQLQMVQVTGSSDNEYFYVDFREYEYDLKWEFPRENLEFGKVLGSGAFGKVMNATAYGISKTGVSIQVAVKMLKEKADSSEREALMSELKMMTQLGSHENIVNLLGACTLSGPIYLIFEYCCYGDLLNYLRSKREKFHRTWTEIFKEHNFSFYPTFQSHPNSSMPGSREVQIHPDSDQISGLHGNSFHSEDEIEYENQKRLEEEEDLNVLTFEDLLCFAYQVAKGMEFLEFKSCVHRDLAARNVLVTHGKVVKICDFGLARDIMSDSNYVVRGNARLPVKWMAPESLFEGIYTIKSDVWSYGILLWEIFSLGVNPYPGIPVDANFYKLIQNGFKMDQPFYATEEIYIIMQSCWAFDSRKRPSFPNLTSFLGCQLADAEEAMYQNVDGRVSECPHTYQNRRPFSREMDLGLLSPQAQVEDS
Experiment: HTS ATP-utilizing enzyme assay, off-chip mobility-shift (Caliper HTS 250)
Format: biochemical
Conditions: test compound 10 μM, kinase listed = active (greater than six-sigma from the mean activity of inactive compounds)
Procedure, shortened: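 Test compound at 10 μM final was incubated with kinase and peptide substrate in HEPES pH 7.5 buffer with Triton X-100 and BSA for 2.5 hrs at 20° C. to 22° C., then stopped with EDTA. Inhibition came from the substrate-to-phosphorylated-product ratio on a microfluidic mobility-shift read. EDTA wells served as 100% control.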

| Activity | SMILES |
| --- | --- |
| FLT-3 | c1ccc(-c2ccc3nccc(Nc4ccc(N5CCNCC5)cc4)c3c2)cc1 [6-phenyl-N-(4-(piperazin-1-yl)phenyl)quinolin-4-amine] |
| FLT-3 | CN1CCN(c2ccc(Nc3ccnc4ccc(-c5ccncc5)cc34)cc2)CC1 [N-(4-(4-methylpiperazin-1-yl)phenyl)-6-(pyridin-4-yl)quinolin-4-amine] |
| FLT-3 | COc1ccc(-c2ccc3nccc(N(C)c4ccc(N5CCN(C)CC5)cc4)c3c2)cc1 [6-(4-methoxyphenyl)-N-methyl-N-(4-(4-methylpiperazin-1-yl)phenyl)quinolin-4-amine] |
| FLT-3 | COc1ccc(-c2ccc3nccc(Nc4ccc(N5CCNCC5)cc4)c3c2)cc1 [6-(4-methoxyphenyl)-N-(4-(piperazin-1-yl)phenyl)quinolin-4-amine] |
| FLT-3 | CN1CCN(c2ccc(Nc3ccnc4ccc(-c5ccc(O)cc5)cc34)cc2)CC1 [4-(4-(4-(4-methylpiperazin-1-yl)phenylamino)quinolin-6-yl)phenol] |
